In patent US20260297105A1, “RAF-MEK PROTEIN COMPLEX MODULATORS AND METHODS OF USE THEREOF” (GANDEEVA THERAPEUTICS, INC., priority 2023, published 2026):

Key:
MEK1 = biological target: T1, MEK1 (Homo sapiens, UniProt Q02750); test: MEK1 kinase cascade assay (ADP-Glo), inhibition of MEK1 kinase activity; type: biochemical; settings: 25 nM BRAF, 6.25 nM MEK1, 0.5 μM ERK, 1 mM ATP; 20 min preincubation, 1 hr at 25° C.; read-out: BRAF ADP Glo kinase assay V3 (IC50)
T1 construct: purchased SignalChem M02-14H
Procedure, shortened: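 Compounds were preincubated 20 mins at 25° C with 25 nM BRAF(445-723) in 10 mM HEPES pH 7.5, 5 mM MgCl2, 2 mM CHAPS, 1 mM DTT, then 6.25 nM MEK1, 0.5 μM ERK1 and 1 mM ATP were added for 1 hr at 25° C, with 1% DMSO. ADP-Glo luminescence was normalized to DMSO and 1 μM Trametinib; IC50 came from 4-parameter fits of duplicates.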

BRAF-MEK1 = test: BRAF-MEK TR-FRET assay, stabilization of MEK1 and BRAF interaction; type: binding; settings: 4 nM BRAF, 10 nM MEK, 100 μM ATP; 1 hr at 25° C.; read-out: BRAF-MEK TR-FRET Assay (EC50, fold stabilization)
Procedure, shortened: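 His-MEK1 (full-length, E. coli) at 10 nM with GST-BRAF at 4 nM, 1 h at 25° C in pH 7.5 Tris buffer with 5 mM MgCl2 and 100 μM ATP; anti-His-Tb/anti-GST-XL665 added for 1 h more. 665/620 FRET ratio over DMSO gives fold stabilization; EC50 from 4-parameter fit, duplicate wells.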

T1 sequence (Q02750 whole entry): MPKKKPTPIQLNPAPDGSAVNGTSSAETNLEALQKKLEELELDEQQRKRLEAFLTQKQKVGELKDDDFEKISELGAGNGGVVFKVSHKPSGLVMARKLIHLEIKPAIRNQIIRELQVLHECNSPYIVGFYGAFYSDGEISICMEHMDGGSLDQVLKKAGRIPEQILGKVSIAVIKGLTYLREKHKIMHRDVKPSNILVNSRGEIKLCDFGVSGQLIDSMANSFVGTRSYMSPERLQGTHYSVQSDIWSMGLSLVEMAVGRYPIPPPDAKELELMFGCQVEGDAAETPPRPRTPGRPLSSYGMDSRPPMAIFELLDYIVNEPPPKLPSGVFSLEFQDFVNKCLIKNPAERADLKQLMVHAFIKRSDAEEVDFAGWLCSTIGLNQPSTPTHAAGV
T1 sequence (P15056 445-723 partner limits assumed): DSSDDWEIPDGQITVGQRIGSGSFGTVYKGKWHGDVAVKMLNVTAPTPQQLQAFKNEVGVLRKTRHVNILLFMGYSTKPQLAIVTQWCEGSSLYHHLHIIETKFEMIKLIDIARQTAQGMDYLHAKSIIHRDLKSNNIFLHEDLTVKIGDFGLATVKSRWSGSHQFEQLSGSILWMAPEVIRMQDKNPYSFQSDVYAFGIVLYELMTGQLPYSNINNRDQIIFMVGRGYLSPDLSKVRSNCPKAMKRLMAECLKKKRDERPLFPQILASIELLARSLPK

SMILES | IC50 (MEK1) [nM] | EC50 (BRAF-MEK1) [nM]
O=C1Oc2c(ccc(Oc3nccnn3)c2F)C2(CCC2)N1Cc1ccnc(NS(=O)(=O)C2CC2)c1F [Compound 187, (cyclopropylsulfonyl)[3-fluoro-4-({8-fluoro-2-oxo-7-(1,2,4-triazin-3-yloxy)-2H,3H-spiro[1,3-benzoxazine-4,1′-cyclobutan]-3-yl}methyl)-2-pyridyl]amine] | 5 to 50 | 50 to 200
CNS(=O)(=O)Nc1cc(F)cc(CN2C(=O)Oc3cc(Oc4cccnn4)ccc3C23CCC3)c1F [Compound 194, 3-{[2,5-difluoro-3-(methylaminosulfonylamino)phenyl]methyl}-7-(3-pyridazinyloxy)-2H,3H-spiro[1,3-benzoxazine-4,1′-cyclobutan]-2-one] | 5 to 50 | 50 to 200
CNS(=O)(=O)Nc1cccc(CN2C(=O)Oc3cc(Oc4cccnn4)ccc3C23CC3)c1F [Compound 196, 3-{[2-fluoro-3-(methylaminosulfonylamino)phenyl]methyl}-7-(3-pyridazinyloxy)-2H,3H-spiro[1,3-benzoxazine-4,1′-cyclopropan]-2-one] | < 5 | < 50
CNS(=O)(=O)Nc1cc(F)cc(CN2Cc3ccc(Oc4cccnn4)cc3OC2=O)c1F [Compound 200, 3-{[2,5-difluoro-3-(methylaminosulfonylamino)phenyl]methyl}-7-(3-pyridazinyloxy)-3,4-dihydro-2H-1,3-benzoxazin-2-one] | 5 to 50 | 200 to 1000
CNS(=O)(=O)Nc1cccc(CN2C(=O)Oc3cc(Oc4cccnn4)cnc3C23CC3)c1F [Compound 201, 2′-{[2-fluoro-3-(methylaminosulfonylamino)phenyl]methyl}-6′-(3-pyridazinyloxy)-2′H,3′H-4′-oxa-2′,8′-diazaspiro[cyclopropane-1,1′-naphthalen]-3′-one] | < 5 | < 50
CNS(=O)(=O)Nc1nccc(CN2C(=O)Oc3cc(Oc4cccnn4)cnc3C23CC3)c1F [Compound 202, 2′-{[3-fluoro-2-(methylaminosulfonylamino)-4-pyridyl]methyl}-6′-(3-pyridazinyloxy)-2′H,3′H-4′-oxa-2′,8′-diazaspiro[cyclopropane-1,1′-naphthalen]-3′-one] | < 5 | < 50
